Source: patent publication US20250120932A1, “PHARMACEUTICAL COMPOSITION” (NEUROPRO THERAPEUTICS, INC., priority 2021, published 2025)
Values joined by “and” are separate entries in the source; they are usually repeats but may differ in a detail not shown here. Equal values may be shown once. Marks after values point to notes of the source that are not given here.

Columns and labels:
[1] = Solubility in 1:1 mixture of Gelucire 44/14 and Span 80 (tablet solubilizer); assay type: physicochemical
Protocol: After successful completion of the dry blend tablet formulation, efforts were made to attempt to enhance solubilization of the drug. Upon successful creation of the tablet prototype batch A, the tablet prototype batch B was developed wherein Bumetanide Dibenzylamide solubilizers were incorporated directly into the dry blend tablet formulation. […] The 1:1 ratio of Lauroyl Polyoxyl-32 Glycerides (Gelucire 44/14), to Sorbitan Ester (Span 80), was determined by combined melting point, taste, viscosity, and solubilizing ability. The ratio provided a semi-solid, which may be liquefied upon application of low heat. […] This mixture was kept under constant stirring to ensure complete even dispersal of ingredients. Continuing under constant heating and mixing, Neusilin US2 (Magnesium Aluminometasilicate) was slowly added to adsorb the viscous mixture onto its particles rough surface. Upon complete adsorption the heat was removed with continued mixing until room temperature was reached. The cooled, hot-melt granulation was then sieved and blended with sieved Polyplasdone XL (Super Disintegrate), Cabosil M5P (fumed silica), and Citric Acid Monohydrate, and Magnesium Stearate. Table 58 illustrates the formulation employed for a sublingual tablet prototype batch B, which was utilized for canine studies. […]

[2] = Solubility at 50° C. in common SEDDS excipients by visual inspection; assay type: physicochemical
[3] = in vitro; conditions: human, Caco-2, pH 7.4, % Solution Recovery
Protocol: Caco-2 cells purchased from ATCC were seeded onto […] (PET) in 96-well Corning Insert plates at 1×10^5 cells/cm^2, and refreshed medium every 4˜5 days until to the 21st to 28th day for confluent cell monolayer formation.
The transport buffer in the study was HBSS with 10.0 mM HEPES at pH 7.40±0.05. Test compound was tested at 2.00 μM bi-directionally in duplicate. Digoxin was tested at 10.0 μM bi-directionally in duplicate, while nadolol and metoprolol were tested at 2.00 μM in A to B direction in duplicate. Final DMSO concentration was adjusted to less than 1%. The plate was incubated for 2 hours in CO2 incubator at 37±1° C., with 5% CO2 at saturated humidity without shaking. And all samples after mixed with acetonitrile containing internal standard were centrifuged at 3200×g for 10 min. For nadolol and metoprolol, 200 μL supernatant solution was diluted with 600 μL ultra-pure water for LC-MS/MS analysis. For digoxin and test compounds, 200 μL supernatant solution was diluted with 200 μL ultra-pure water for LC-MS/MS analysis. Concentrations of test and control compounds in starting solution, donor solution, and receiver solution were quantified by LC-MS/MS methodologies, using peak area ratio of analyte/internal standard. After transport assay, lucifer yellow rejection assay was applied to determine the Caco-2 cell monolayer integrity.
The apparent permeability coefficient Papp (cm/s) was calculated using the equation: […]
Where dCp/dt is the cumulative concentration of compound in the receiver chamber as a function of time (μM/s); Vr is the solution volume in the receiver chamber (0.075 mL on the apical side, 0.25 mL on the basolateral side); A is the surface area for the transport, i.e. 0.0804 cm^2 for the area of the monolayer; Co is the initial concentration in the donor chamber (μM). The efflux ratio was calculated using the equation: […]
Percent recovery was calculated using the equation: […]
Where Vd is the volume in the donor chambers (0.075 mL on the apical side, 0.25 mL on the basolateral side); Ca and Cr are the final concentrations of transport compound in donor and receiver chambers, respectively.

[4] = Pharmacokinetic profile after single intravenous or oral gavage dose in rats; conditions: for C0: back predicted to time 0
Protocol: Animals were dosed via oral gavage or intravenous injection once on Day 1 at a volume of 5 mL/kg for Group 1 and 10 mL/kg for Group 2. The vehicle was 40% (v/v) Polyethylene Glycol 400 (PEG400), 20% (v/v) Propylene Glycol, 5% (v/v) Ethanol, and 35% (v/v) water for Group 1 and the vehicle was 0.5% (w/v) Carboxymethylcellulose (medium viscosity) in reverse osmosis water for Group 2.
Blood samples (approximately 0.5 mL) were collected from nonfasted toxicokinetic animals via a jugular vein on Day 1 of the dosing phase, as indicated in Table 18
Blood was collected into tubes containing potassium (K2) EDTA as the anticoagulant. Samples were maintained on wet ice and were centrifuged within 30 minutes of collection. Plasma was harvested and stored on dry ice until placed in a freezer, set to maintain −60 to −80° C., until shipped on dry ice to Origin Bioanalytical Laboratory, Inc. for analysis.
Pharmacokinetic parameters were derived using non-compartmental methods employing Phoenix WinNonlin® version 8.1 (Pharsight Corp; St. Louis, MO). The PK parameters defined previously in Table 10 were calculated by non-compartmental methods using composite plasma concentration-time data obtained from 3 rats/sex/time point/dose. The area under the concentration-time curve from zero time (pre-dose) to the last time point was calculated by a combination of linear and logarithmic trapezoidal methods. The linear trapezoidal method was employed for all incremental trapezoids arising from increasing concentrations and the logarithmic trapezoidal method was used for those arising from decreasing concentrations (linear up/log down method). Nominal blood sampling times were used in the analysis. […] Individual BQL results were set to zero for all calculations. No animals were excluded from the analysis.

[5] = Prototype capsule (SEDDS) development: solubilization and dispersion test in water; assay type: physicochemical; conditions: capsule compositions with long chain triglycerides and 0 to 4.68% w/w ethanol
Protocol: Prototype capsule formulations were developed at a less than 2-gram scale. […] The oil phase was then added to the formulations and stirred until the solution became clear. The solutions were cooled to room temperature while stirring and co-solvent was then added (if applicable).
To test if the composition created macro-dispersions or micro-dispersions, about 30 mg of formulation was added into 1.0 g of water and lightly swirled. The resultant dispersion was visually characterized. SEDDS (macroemulsions) are typically characterized as an opaque milky white uniform liquid, and SEDDS (microemulsions) are characterized by a clear, isotropic, transparent solution with opalescence. […] Compositions 4 and 6 were selected for future development work, and the intermediate stability of those compositions was evaluated as described below.

[6] = male, Hsd: Sprague Dawley, rat, plasma, iv, 10 mg/kg
[7] = rats, oral 30 mg/kg vs IV 10 mg/kg

- solubility [1]: approximately 500 mg/g
- Bumetanide Dibenzylamide, in solution ([2]; Captex 300 (Caprylic/Capric Triglyceride, Medium Chain Triglyceride), 50° C.): <1* mg/ml
- Bumetanide Dibenzylamide, in solution ([2]; Drakeol 6VR LT (Mineral Oil), 50° C.): <1* mg/ml
- Bumetanide Dibenzylamide, in solution ([2]; Kolliphor EL (Polyoxyl 35 castor oil), 50° C.): 13.5 mg/mL
- Bumetanide Dibenzylamide, in solution ([2]; Labrafac Lipophile WL 1349 (Medium Chain Triglyceride), 50° C.): 3 mg/mL
- Bumetanide Dibenzylamide, in solution ([2]; Labrafil M 1944CS (Oleoyl polyoxyl 1-6 glycerides), 50° C.): 4.5 mg/mL
- Bumetanide Dibenzylamide, in solution ([2]; Labrasol ALF (Caprylocaproyl Polyoxylglycerides), 50° C.): 63 mg/mL
- Bumetanide Dibenzylamide, in solution ([2]; Lauroyl Plyoxyl-32 Glycerides (Gelucire 44/14), 50° C.): 106 mg/mL
- Bumetanide Dibenzylamide, in solution ([2]; Oleic Acid, 50° C.): <1* mg/ml
- Bumetanide Dibenzylamide, in solution ([2]; Oleyl Alcohol, 50° C.): <1* mg/ml
- Bumetanide Dibenzylamide, in solution ([2]; Polyethylene Glycol 400, 50° C.): 8.6 mg/mL
- Bumetanide Dibenzylamide, in solution ([2]; Propylene Glycol, 50° C.): 2 mg/mL
- Bumetanide Dibenzylamide, in solution ([2]; Sorbitan Ester (Span 80), 50° C.): 250 mg/mL
- Bumetanide Dibenzylamide, in solution ([2]; Soybean Oil, 50° C.): 2 mg/mL
- recovery at 2 h, 2 μM [3]: < 50%
- Plasma Bumetanide Dibenzylamide concentration ([4]; male rats, IV bolus 10 mg/kg, 1 h, 10 mg/kg): 1040 ng/mL
- AUC(0-inf) [4, 6]: 3730 ng·h/mL
- Vd [4, 6]: 10.1 L/kg
- clearance [4, 6]: 44.7 mL/min/kg
- C0 ([4]; male, Hsd: Sprague Dawley, rat, plasma, iv, 10 mg/kg, C0, rats, IV bolus 10 mg/kg): 2780 ng/mL
- concentration at 0.08 h ([4]; male, Hsd: Sprague Dawley, rat, plasma, iv, 10 mg/kg, Plasma Bumetanide Dibenzylamide concentration, male rats, IV bolus 10 mg/kg, 0.08 h): 2510 ng/mL
- concentration at 4 h ([4]; male, Hsd: Sprague Dawley, rat, plasma, po, 30 mg/kg, Plasma Bumetanide Dibenzylamide concentration, male rats, oral 30 mg/kg, 4 h): 4.56 ng/mL
- concentration at 1 h ([4]; male, Sprague Dawley, rat, plasma, iv, 10 mg/kg, Plasma Bumetanide Dibenzylamide concentration, male rats, IV bolus 10 mg/kg, 1 h): 993 ng/mL
- C0 ([4]; rats, IV bolus 10 mg/kg, 10 mg/kg): 2720 ng/mL
- Fabs (%) [4, 7]: 0.34% and 0.32%
- Fabs (ratio) [4, 7]: 0.0034 and 0.0032
- maximum solubility of Bumetanide Dibenzylamide [5]: about 1.8 % w/w
SMILES: CCCCNc1cc(C(=O)N(Cc2ccccc2)Cc2ccccc2)cc(S(N)(=O)=O)c1Oc1ccccc1 [Bumetanide Dibenzylamide, N, N-dibenzyl 3-aminosulfonyl-5-butylamino-4-phenoxybenzamide]
